Each block holds one compound with its values, some of them ahead of it.
Test system: NCI-H196 complex spheroid growth, percent test/control
Assay: Anticancer human tumor NCI-H196 cell line growth inhibition [AhR];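 also: seven days of drug exposure starting three days after plating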;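 as to viability, T/C: 100% = DMSO vehicle control wells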
Conditions: for IC50: curve of first compound; for viability, T/C: stronger effect = lower value
In short: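 Agents were dosed in half-log steps down from roughly clinical Cmax, or from 10 microM where Cmax was unknown, alone and with AhR antagonists. Read-out: percent test/control growth of tumor spheroids containing HUVEC and MSC stromal cells.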

[1] = second compound 0.1 µM, first compound 0.0316 µM
[2] = second compound 0.1 µM, first compound 0.1 µM
[3] = second compound 0.1 µM, first compound 0.316 µM
[4] = second compound 0.1 µM, first compound 1 µM
[5] = second compound 0.316 µM, first compound 0.0316 µM
[6] = second compound 0.316 µM, first compound 0.1 µM
[7] = second compound 0.316 µM, first compound 0.316 µM
[8] = second compound 0.316 µM, first compound 1 µM
[9] = second compound 1 µM, first compound 0.0316 µM
[10] = second compound 1 µM, first compound 0.1 µM
[11] = second compound 1 µM, first compound 0.316 µM
[12] = second compound 1 µM, first compound 1 µM
[13] = second compound 3.16 µM, first compound 0.0316 µM
[14] = second compound 3.16 µM, first compound 0.1 µM
[15] = second compound 3.16 µM, first compound 0.316 µM
[16] = second compound 3.16 µM, first compound 1 µM
[17] = second compound 10 µM, first compound 0.0316 µM
[18] = second compound 10 µM, first compound 0.1 µM
[19] = second compound 10 µM, first compound 0.316 µM
[20] = second compound 10 µM, first compound 1 µM
[21] = second compound 0.1 µM, first compound 0.00949 µM
[22] = second compound 0.1 µM, first compound 0.03 µM
[23] = second compound 0.1 µM, first compound 0.0949 µM
[24] = second compound 0.1 µM, first compound 0.3 µM
[25] = second compound 0.1 µM, first compound 0.949 µM
[26] = second compound 0.1 µM, first compound 3 µM
[27] = second compound 0.316 µM, first compound 0.00949 µM
[28] = second compound 0.316 µM, first compound 0.03 µM
[29] = second compound 0.316 µM, first compound 0.0949 µM
[30] = second compound 0.316 µM, first compound 0.3 µM
[31] = second compound 0.316 µM, first compound 0.949 µM
[32] = second compound 0.316 µM, first compound 3 µM
[33] = second compound 1 µM, first compound 0.00949 µM
[34] = second compound 1 µM, first compound 0.03 µM
[35] = second compound 1 µM, first compound 0.0949 µM
[36] = second compound 1 µM, first compound 0.3 µM
[37] = second compound 1 µM, first compound 0.949 µM
[38] = second compound 1 µM, first compound 3 µM
[39] = second compound 3.16 µM, first compound 0.00949 µM
[40] = second compound 3.16 µM, first compound 0.03 µM
[41] = second compound 3.16 µM, first compound 0.0949 µM
[42] = second compound 3.16 µM, first compound 0.3 µM
[43] = second compound 3.16 µM, first compound 0.949 µM
[44] = second compound 3.16 µM, first compound 3 µM
[45] = second compound 10 µM, first compound 0.00949 µM
[46] = second compound 10 µM, first compound 0.03 µM
[47] = second compound 10 µM, first compound 0.0949 µM
[48] = second compound 10 µM, first compound 0.3 µM
[49] = second compound 10 µM, first compound 0.949 µM
[50] = second compound 10 µM, first compound 3 µM

Structure (SMILES): CC1COCCN1c1cc(C2(S(C)(=N)=O)CC2)nc(-c2ccnc3[nH]ccc23)n1 (stereo not given) + CC(CO)NC(=O)c1cc(-c2ccc(Cl)cc2)nn(-c2cnn(C)c2)c1=O
IC50 (second compound 0.1 µM): > 10000 nM | IC50 (second compound 0.316 µM): > 10000 nM | IC50 (second compound 1 µM): > 10000 nM | IC50 (second compound 3.16 µM): > 10000 nM | IC50 (second compound 10 µM): > 10000 nM | viability, T/C [1]: 106% | viability, T/C [2]: 115% | viability, T/C [3]: 98.6% | viability, T/C [4]: 117% | viability, T/C (second compound 0.1 µM, first compound 3.16 µM): 101% | viability, T/C (second compound 0.1 µM, first compound 10 µM): 87% | viability, T/C [5]: 103% | viability, T/C [6]: 110% | viability, T/C [7]: 114% | viability, T/C [8]: 104% | viability, T/C (second compound 0.316 µM, first compound 3.16 µM): 89.8% | viability, T/C (second compound 0.316 µM, first compound 10 µM): 91.1% | viability, T/C [9]: 113% | viability, T/C [10]: 114% | viability, T/C [11]: 114% | viability, T/C [12]: 109% | viability, T/C (second compound 1 µM, first compound 3.16 µM): 100% | viability, T/C (second compound 1 µM, first compound 10 µM): 85.8% | viability, T/C [13]: 119% | viability, T/C [14]: 126% | viability, T/C [15]: 106% | viability, T/C [16]: 111% | viability, T/C (second compound 3.16 µM, first compound 3.16 µM): 99.3% | viability, T/C (second compound 3.16 µM, first compound 10 µM): 83.8% | viability, T/C [17]: 113% | viability, T/C [18]: 115% | viability, T/C [19]: 109% | viability, T/C [20]: 120% | viability, T/C (second compound 10 µM, first compound 3.16 µM): 103% | viability, T/C (second compound 10 µM, first compound 10 µM): 81.8%

Structure (SMILES): CCN(c1cc(-c2ccc(CN3CCOCC3)cc2)cc(C(=O)NCc2c(C)cc(C)[nH]c2=O)c1C)C1CCOCC1 + CC(CO)NC(=O)c1cc(-c2ccc(Cl)cc2)nn(-c2cnn(C)c2)c1=O
IC50 (second compound 0.1 µM): > 3000 nM | IC50 (second compound 0.316 µM): > 3000 nM | IC50 (second compound 1 µM): > 3000 nM | IC50 (second compound 3.16 µM): > 3000 nM | IC50 (second compound 10 µM): > 3000 nM | viability, T/C [21]: 111% | viability, T/C [22]: 111% | viability, T/C [23]: 105% | viability, T/C [24]: 108% | viability, T/C [25]: 111% | viability, T/C [26]: 107% | viability, T/C [27]: 123% | viability, T/C [28]: 118% | viability, T/C [29]: 105% | viability, T/C [30]: 111% | viability, T/C [31]: 118% | viability, T/C [32]: 121% | viability, T/C [33]: 112% | viability, T/C [34]: 116% | viability, T/C [35]: 113% | viability, T/C [36]: 117% | viability, T/C [37]: 118% | viability, T/C [38]: 118% | viability, T/C [39]: 121% | viability, T/C [40]: 112% | viability, T/C [41]: 121% | viability, T/C [42]: 112% | viability, T/C [43]: 123% | viability, T/C [44]: 108% | viability, T/C [45]: 120% | viability, T/C [46]: 127% | viability, T/C [47]: 123% | viability, T/C [48]: 115% | viability, T/C [49]: 115% | viability, T/C [50]: 124%

More lines, main results first:

IC50 (second compound 0.1 µM): > 1000 nM | IC50 (second compound 0.316 µM): > 1000 nM | IC50 (second compound 1 µM): > 1000 nM | IC50 (second compound 3.16 µM): > 1000 nM | IC50 (second compound 10 µM): > 1000 nM
Structure (SMILES): CC1COCCN1c1cc(-c2ccnn2C)c2ccnc(-c3ccn[nH]3)c2n1 (stereo not given) + CC(CO)NC(=O)c1cc(-c2ccc(Cl)cc2)nn(-c2cnn(C)c2)c1=O
viability, T/C (second compound 0.1 µM, first compound 0.00316 µM): 104% | viability, T/C (second compound 0.1 µM, first compound 0.01 µM): 109% | viability, T/C [1]: 101% | viability, T/C [2]: 79.3% | viability, T/C [3]: 72.2% | viability, T/C [4]: 61.1% | viability, T/C (second compound 0.316 µM, first compound 0.00316 µM): 105% | viability, T/C (second compound 0.316 µM, first compound 0.01 µM): 98.9% | viability, T/C [5]: 97.9% | viability, T/C [6]: 78.6% | viability, T/C [7]: 66.3% | viability, T/C [8]: 68.5% | viability, T/C (second compound 1 µM, first compound 0.00316 µM): 108% | viability, T/C (second compound 1 µM, first compound 0.01 µM): 104% | viability, T/C [9]: 101% | viability, T/C [10]: 90.8% | viability, T/C [11]: 77.4% | viability, T/C [12]: 71% | viability, T/C (second compound 3.16 µM, first compound 0.00316 µM): 111% | viability, T/C (second compound 3.16 µM, first compound 0.01 µM): 102% | viability, T/C [13]: 98% | viability, T/C [14]: 82.4% | viability, T/C [15]: 80% | viability, T/C [16]: 66.5% | viability, T/C (second compound 10 µM, first compound 0.00316 µM): 103% | viability, T/C (second compound 10 µM, first compound 0.01 µM): 98.5% | viability, T/C [17]: 107% | viability, T/C [18]: 89.4% | viability, T/C [19]: 74.2% | viability, T/C [20]: 79.8%

IC50 (second compound 0.1 µM): > 300 nM | IC50 (second compound 0.316 µM): > 300 nM | IC50 (second compound 1 µM): > 300 nM | IC50 (second compound 3.16 µM): > 300 nM | IC50 (second compound 10 µM): > 300 nM
Structure (SMILES): Nc1ncn(C2CC(O)C(CO)S2)c(=O)n1 (stereo not given) + CC(CO)NC(=O)c1cc(-c2ccc(Cl)cc2)nn(-c2cnn(C)c2)c1=O
viability, T/C (second compound 0.1 µM, first compound 0.000949 µM): 104% | viability, T/C (second compound 0.1 µM, first compound 0.003 µM): 94.2% | viability, T/C [21]: 103% | viability, T/C [22]: 108% | viability, T/C [23]: 116% | viability, T/C [24]: 103% | viability, T/C (second compound 0.316 µM, first compound 0.000949 µM): 105% | viability, T/C (second compound 0.316 µM, first compound 0.003 µM): 104% | viability, T/C [27]: 94.2% | viability, T/C [28]: 101% | viability, T/C [29]: 113% | viability, T/C [30]: 105% | viability, T/C (second compound 1 µM, first compound 0.000949 µM): 107% | viability, T/C (second compound 1 µM, first compound 0.003 µM): 104% | viability, T/C [33]: 112% | viability, T/C [34]: 110% | viability, T/C [35]: 112% | viability, T/C [36]: 118% | viability, T/C (second compound 3.16 µM, first compound 0.000949 µM): 106% | viability, T/C (second compound 3.16 µM, first compound 0.003 µM): 101% | viability, T/C [39]: 110% | viability, T/C [40]: 114% | viability, T/C [41]: 120% | viability, T/C [42]: 127% | viability, T/C (second compound 10 µM, first compound 0.000949 µM): 108% | viability, T/C (second compound 10 µM, first compound 0.003 µM): 116% | viability, T/C [45]: 118% | viability, T/C [46]: 114% | viability, T/C [47]: 111% | viability, T/C [48]: 112%

IC50 (second compound 0.1 µM): 45.1 nM | IC50 (second compound 0.316 µM): 37.4 nM | IC50 (second compound 1 µM): 33.3 nM | IC50 (second compound 3.16 µM): 38.4 nM | IC50 (second compound 10 µM): 45.8 nM
Structure (SMILES): O=C(C=Cn1cnc(-c2cc(C(F)(F)F)cc(C(F)(F)F)c2)n1)NNc1cnccn1 + CC(CO)NC(=O)c1cc(-c2ccc(Cl)cc2)nn(-c2cnn(C)c2)c1=O
viability, T/C [21]: 71.2% | viability, T/C [22]: 71.1% | viability, T/C [23]: 11.6% | viability, T/C [24]: 11.1% | viability, T/C [25]: 7.23% | viability, T/C [26]: 6.89% | viability, T/C [27]: 74.7% | viability, T/C [28]: 58.2% | viability, T/C [29]: 14.9% | viability, T/C [30]: 12.3% | viability, T/C [31]: 8.19% | viability, T/C [32]: 7.69% | viability, T/C [33]: 73.2% | viability, T/C [34]: 53.6% | viability, T/C [35]: 14.3% | viability, T/C [36]: 7.96% | viability, T/C [37]: 8.07% | viability, T/C [38]: 6.9% | viability, T/C [39]: 75.9% | viability, T/C [40]: 59.1% | viability, T/C [41]: 16.4% | viability, T/C [42]: 7.92% | viability, T/C [43]: 6.29% | viability, T/C [44]: 7.99% | viability, T/C [45]: 80.6% | viability, T/C [46]: 69.1% | viability, T/C [47]: 17.2% | viability, T/C [48]: 11.2% | viability, T/C [49]: 10.8% | viability, T/C [50]: 7.46%

Source: PubChem BioAssay AID1919016 (Molecular Pharmacology Branch, DTP, NCI, 2023)
